# Assay results published in ChEMBL document CHEMBL5214965, “Synthesis and antidepressant activity of novel 1-(1-benzoylpiperidin-4-yl) methanamine derivatives selectively targeting SSRI/5-HT1A” (Bioorg Med Chem Lett, 2022).
# Calls of active or inactive are those of the source. No cut-off for these calls is given here.
# Tests used:
# in vitro [1] = settings: human, liver microsomes
# [2] = target: Sodium-dependent serotonin transporter (Rattus norvegicus) (UniProt P31652); test: Inhibition of serotonin transporter in rat brain tissue assessed as inhibition of [3H]-5-hydroxytryptamine reuptake at 1 uM relative to control; format: tissue-based
# Sequence of Sodium-dependent serotonin transporter (Rattus norvegicus) (P31652 whole entry): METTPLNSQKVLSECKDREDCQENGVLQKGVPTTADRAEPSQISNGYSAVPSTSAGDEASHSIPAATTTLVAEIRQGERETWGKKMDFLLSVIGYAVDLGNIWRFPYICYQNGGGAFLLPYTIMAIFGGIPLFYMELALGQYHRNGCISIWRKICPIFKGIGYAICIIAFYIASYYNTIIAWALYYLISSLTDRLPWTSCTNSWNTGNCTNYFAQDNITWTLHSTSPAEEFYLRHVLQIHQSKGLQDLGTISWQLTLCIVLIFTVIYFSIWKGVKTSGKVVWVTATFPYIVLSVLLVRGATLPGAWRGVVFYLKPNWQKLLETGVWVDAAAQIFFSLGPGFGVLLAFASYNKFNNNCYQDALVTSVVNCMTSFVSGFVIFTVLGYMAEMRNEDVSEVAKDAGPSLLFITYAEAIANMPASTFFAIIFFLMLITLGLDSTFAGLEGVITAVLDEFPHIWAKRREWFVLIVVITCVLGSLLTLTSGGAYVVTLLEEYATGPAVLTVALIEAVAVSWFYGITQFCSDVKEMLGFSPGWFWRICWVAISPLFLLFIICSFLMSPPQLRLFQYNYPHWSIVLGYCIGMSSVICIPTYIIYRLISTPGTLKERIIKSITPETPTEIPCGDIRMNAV
# in vitro [3] = settings: human, liver microsomes; remark: listed apart in the source
# Description: Metabolic stability in human liver microsomes assessed as clearance
# [4] = target: T1, 5-hydroxytryptamine receptor 1A (Homo sapiens) (UniProt P08908); test: Displacement of [3H][…] from 5-HT1A receptor in human HEK293 cells at 1 uM measured after 60 mins by scintillation counting method relative to control; format: cell-based
# T1 sequence (whole entry): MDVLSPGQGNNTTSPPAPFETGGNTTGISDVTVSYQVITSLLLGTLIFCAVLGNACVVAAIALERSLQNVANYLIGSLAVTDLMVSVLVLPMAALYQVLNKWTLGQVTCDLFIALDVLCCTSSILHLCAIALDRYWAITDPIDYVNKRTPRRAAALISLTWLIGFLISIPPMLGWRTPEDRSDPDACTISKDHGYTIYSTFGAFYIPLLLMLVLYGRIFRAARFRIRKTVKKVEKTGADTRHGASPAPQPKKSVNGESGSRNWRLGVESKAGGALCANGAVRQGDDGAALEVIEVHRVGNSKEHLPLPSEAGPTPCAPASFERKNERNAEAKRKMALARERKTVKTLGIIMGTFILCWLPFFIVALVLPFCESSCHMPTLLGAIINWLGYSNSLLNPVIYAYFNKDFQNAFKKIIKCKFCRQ
# in vitro [5] = settings: mouse, liver microsomes
# Description: Metabolic stability in mouse liver microsomes assessed as clearance
# in vitro [6] = settings: mouse, liver microsomes; remark: listed apart in the source
# Description: Metabolic stability in mouse liver microsomes assessed as half life
# [7] = target: Sodium-dependent serotonin transporter (Rattus norvegicus, UniProt P31652); test: Inhibition of serotonin transporter in rat brain tissue assessed as inhibition of [3H]-5-hydroxytryptamine reuptake; format: tissue-based
# Sequence of Sodium-dependent serotonin transporter (P31652 whole entry): as the sequence (P31652 whole entry) above
# [8] = target: T2, 5-hydroxytryptamine receptor 1A (Homo sapiens, UniProt P08908); test: Displacement of [3H][…] from 5-HT1A receptor in human HEK293 cells measured after 60 mins by scintillation counting method; format: cell-based
# T2 sequence (P08908 whole entry): T1 sequence (whole entry)
# Mus musculus [9] = test: Antidepressant activity in ICR mouse assessed as reduction in immobility time at 0.6 to 80 mg/kg, po for 7 days by forced swimming test; format: functional, organism-based; settings: dose 0.6-80 mg/kg, time 7.0 day
# Homo sapiens [10] = organism: Homo sapiens; test: Inhibition of 5-HT7 receptor (unknown origin); settings: concentration not given here
# [11] = target: 5-hydroxytryptamine receptor 2A (Homo sapiens) (UniProt P28223); test: Inhibition of 5-HT2A receptor (unknown origin); settings: concentration not given here
# Sequence of 5-hydroxytryptamine receptor 2A (Homo sapiens) (P28223 whole entry): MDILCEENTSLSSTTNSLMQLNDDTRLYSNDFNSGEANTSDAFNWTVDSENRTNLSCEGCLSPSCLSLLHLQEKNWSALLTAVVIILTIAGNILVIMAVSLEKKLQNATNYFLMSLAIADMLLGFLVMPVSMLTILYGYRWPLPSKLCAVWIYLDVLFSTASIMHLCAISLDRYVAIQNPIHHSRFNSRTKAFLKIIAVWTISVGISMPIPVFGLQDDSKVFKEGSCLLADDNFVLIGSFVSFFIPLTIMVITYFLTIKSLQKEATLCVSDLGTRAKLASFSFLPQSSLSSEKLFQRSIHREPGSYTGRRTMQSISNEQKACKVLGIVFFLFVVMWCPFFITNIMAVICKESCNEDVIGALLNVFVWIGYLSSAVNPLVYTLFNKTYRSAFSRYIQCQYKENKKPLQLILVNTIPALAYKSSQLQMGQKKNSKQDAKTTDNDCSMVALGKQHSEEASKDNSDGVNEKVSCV
# [12] = Binding affinity to 5-HT6 receptor (unknown origin) assessed as inhibition constant; parameters: species or system Homo sapiens
# [13] = target: 5-hydroxytryptamine receptor 1D (Homo sapiens) (UniProt P28221); test: Inhibition of 5-HT1D receptor (unknown origin); settings: concentration not given here
# Sequence of 5-hydroxytryptamine receptor 1D (Homo sapiens) (P28221 whole entry): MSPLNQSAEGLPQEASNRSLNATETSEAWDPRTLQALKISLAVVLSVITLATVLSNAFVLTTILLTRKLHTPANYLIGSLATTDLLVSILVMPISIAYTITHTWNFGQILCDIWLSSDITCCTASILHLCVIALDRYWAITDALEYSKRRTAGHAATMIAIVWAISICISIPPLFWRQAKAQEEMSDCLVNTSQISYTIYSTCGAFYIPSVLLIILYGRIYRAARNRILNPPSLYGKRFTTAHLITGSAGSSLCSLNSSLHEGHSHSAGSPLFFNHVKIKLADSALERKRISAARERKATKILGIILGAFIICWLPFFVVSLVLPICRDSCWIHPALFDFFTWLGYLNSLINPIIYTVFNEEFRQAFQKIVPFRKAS
# Mus musculus [14] = test: Antidepressant activity in ICR mouse assessed as reduction in immobility time at 0.6 mg/kg, po for 7 days by tail suspension test; format: functional; parameters: scale not given: the % may be the effect or the level left; settings: time 7 day
# [15] = Binding affinity to 5-HT7 receptor (unknown origin) assessed as inhibition constant; parameters: species or system Homo sapiens
# [16] = target: 5-hydroxytryptamine receptor 1B (Homo sapiens) (UniProt P28222); test: Inhibition of 5-HT1B receptor (unknown origin); settings: concentration not given here
# Sequence of 5-hydroxytryptamine receptor 1B (Homo sapiens) (P28222 whole entry): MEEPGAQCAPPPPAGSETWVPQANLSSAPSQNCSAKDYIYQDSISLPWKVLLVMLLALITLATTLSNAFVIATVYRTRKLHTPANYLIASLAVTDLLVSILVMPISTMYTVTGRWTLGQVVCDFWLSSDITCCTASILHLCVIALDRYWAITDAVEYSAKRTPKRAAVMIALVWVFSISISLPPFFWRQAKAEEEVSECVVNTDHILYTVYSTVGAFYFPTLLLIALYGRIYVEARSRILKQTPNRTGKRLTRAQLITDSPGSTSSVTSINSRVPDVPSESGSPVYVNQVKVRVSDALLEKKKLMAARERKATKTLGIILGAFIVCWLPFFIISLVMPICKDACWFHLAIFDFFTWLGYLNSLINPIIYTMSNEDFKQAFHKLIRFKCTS
# Mus musculus [17] = test: Antidepressant activity in ICR mouse assessed as reduction in immobility time at 0.6 mg/kg, po for 7 days by forced swimming test; format: functional; parameters: scale not given: the % may be the effect or the level left; settings: time 7 day
# [18] = target: Serotonin 3 (5-HT3) receptor (Homo sapiens) (UniProt P46098+A5X5Y0+O95264+Q70Z44+Q8WXA8); test: Inhibition of 5-HT3 receptor (unknown origin); format: protein-complex assay; settings: concentration not given here
# [19] = target: T3, 5-hydroxytryptamine receptor 2C (Homo sapiens) (UniProt P28335); test: Inhibition of 5-HT2C receptor (unknown origin); settings: concentration not given here
# T3 sequence (whole entry): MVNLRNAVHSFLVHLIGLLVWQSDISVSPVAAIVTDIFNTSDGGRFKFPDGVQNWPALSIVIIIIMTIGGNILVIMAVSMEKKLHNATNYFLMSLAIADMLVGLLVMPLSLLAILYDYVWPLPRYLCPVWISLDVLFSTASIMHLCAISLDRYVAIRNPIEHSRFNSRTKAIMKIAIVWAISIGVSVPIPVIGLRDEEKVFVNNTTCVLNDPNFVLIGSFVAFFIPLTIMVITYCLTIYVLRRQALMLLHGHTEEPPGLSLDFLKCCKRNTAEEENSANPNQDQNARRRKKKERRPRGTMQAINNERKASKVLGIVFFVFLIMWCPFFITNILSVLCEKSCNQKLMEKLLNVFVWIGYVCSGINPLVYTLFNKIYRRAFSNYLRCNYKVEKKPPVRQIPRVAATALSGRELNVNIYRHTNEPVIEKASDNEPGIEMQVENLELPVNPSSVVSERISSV
# Homo sapiens [20] = organism: Homo sapiens; test: Inhibition of 5-HT6 receptor (unknown origin); settings: concentration not given here
# Mus musculus [21] = test: Antidepressant activity in ICR mouse assessed as reduction in immobility time at 10 mg/kg, po for 7 days by tail suspension test; format: functional; parameters: scale not given: the % may be the effect or the level left; settings: time 7 day
SMILES,half-life (in vitro [1]) [min],inhibition [2] [%],microsomal CLint (in vitro [3]) [µL/min/mg],inhibition [4] [%],microsomal CLint (in vitro [5]) [µL/min/mg],half-life (in vitro [6]) [min],also measured
O=C(c1ccc(F)c(F)c1)N1CCC(CNCCCc2c[nH]c3ccc(F)cc23)CC1,19.5,103,71.2,99,,,
CCCN(CCCc1c[nH]c2ccc(F)cc12)CC1CCN(C(=O)c2ccc(F)c(Cl)c2)CC1,,101,,86,,,
NC(=O)c1ccccc1C(=O)N1CCC(CNCCCc2c[nH]c3ccc(F)cc23)CC1,10,102,138,98,105,13.2,
Fc1ccc(OCCN2CCC(c3c[nH]c4ccc(F)cc34)CC2)c(-c2ccccc2)c1,,,,,,,IC50 [7]: 0.5 nM; Ki ([8]; read-out: Ki): 0.2 nM
O=C(c1ccc(F)c(Cl)c1)N1CCC(NCCCc2c[nH]c3ccc(F)cc23)CC1,,102,,96,,,
N#Cc1ccc2[nH]cc(CCCCN3CCN(c4ccc5oc(C(N)=O)cc5c4)CC3)c2c1 [VILAZODONE],26.9,,51.6,,60.6,23.1,
Cc1ccc(C(=O)N2CCC(CNCCCc3c[nH]c4ccc(F)cc34)CC2)cc1,4.48,99,310,99,,,
O=C(c1ccc(F)c(Cl)c1)N1CCC(CNCc2cccc(-n3cccn3)n2)CC1,,,,,,,Ki [8]: 1.54 nM
O=C(c1cccc(Cl)c1)N1CCC(CNCCCc2c[nH]c3ccc(F)cc23)CC1,9.07,103,153,101,49.8,27.8,
Fc1ccc(N2CCN(CCCc3c[nH]c4ccc(F)cc34)CC2)c(-c2ccccc2)c1,,,,,,,IC50 [7]: 177 nM; Ki ([8]; read-out: Ki): 12 nM
O=C(c1ccc(F)c(Cl)c1)N1CCC(CNCCCc2c[nH]c3ccc(F)cc23)CC1,26.8,101,51.8,99,22.5,61.6,Activity (Mus musculus [9]): Active; inhibition (Homo sapiens [10]): 86.5%; IC50 [7]: 8.2 nM; inhibition [11]: < 75%; Ki [12]: 150 nM; inhibition [13]: < 75%; Activity (Mus musculus [14]): 19%; Ki [15]: 36 nM; inhibition [16]: < 75%; Activity (Mus musculus [17]): 34%; Ki ([8]; read-out: Ki): 0.069 nM; inhibition [18]: < 75%; inhibition [19]: < 75%; inhibition (Homo sapiens [20]): 82%; Activity (Mus musculus [21]): 24%
NC(=O)c1cccc(C(=O)N2CCC(CNCCCc3c[nH]c4ccc(F)cc34)CC2)c1,154,102,9,98,5,277,
NC(=O)c1ccc(C(=O)N2CCC(CNCCCc3c[nH]c4ccc(F)cc34)CC2)cc1,330,100,4.2,98,13.6,102,
Cc1cc(C(=O)N2CCC(CNCCCc3c[nH]c4ccc(F)cc34)CC2)ccc1F,3.86,103,559,100,,,
N#Cc1ccc2[nH]cc(CCCNCC3CCN(C(=O)c4ccc(F)c(Cl)c4)CC3)c2c1,12.2,103,113,100,,,
O=C(c1ccc(F)c(Cl)c1)N1CCC(CNCCCCc2c[nH]c3ccc(F)cc23)CC1,11.7,103,118,99,30.8,45,
O=C(c1ccc(F)c(Cl)c1)N1CCC(CNCCCCCc2c[nH]c3ccc(F)cc23)CC1,,101,,92,,,
O=C(c1ccc(F)cc1)N1CCC(CNCCCc2c[nH]c3ccc(F)cc23)CC1,16.4,101,84.3,100,,,
O=C(c1ccc(Cl)c(Cl)c1)N1CCC(CNCCCc2c[nH]c3ccc(F)cc23)CC1,30.5,101,45.4,100,44.9,30.8,IC50 [7]: 17 nM; Ki ([8]; read-out: Ki): 0.097 nM
O=C(c1ccc(Cl)cc1)N1CCC(CNCCCc2c[nH]c3ccc(F)cc23)CC1,19.5,103,70.9,100,,,
CN(CCCc1c[nH]c2ccc(F)cc12)CC1CCN(C(=O)c2ccc(F)c(Cl)c2)CC1,,102,,94,,,
O=C(c1ccc(F)c(Cl)c1)N1CCC(CNCCc2c[nH]c3ccc(F)cc23)CC1,,101,,93,,,
